# Reference: patent US8658131B2, “Compounds comprising 4-benzoylpiperidine as a sigma-1-selective ligand” (Washington University, priority 2010, dated 2014)
# Where a name gives a salt, the structure may show the parent alone. Read-outs that look alike come from different tables or passages of the source.
# What was measured:
# VAChT [1] = target: T1, VAChT (Homo sapiens, UniProt Q16572); conditions: previous study; cited from earlier work
# T1 sequence (Q16572 1-532): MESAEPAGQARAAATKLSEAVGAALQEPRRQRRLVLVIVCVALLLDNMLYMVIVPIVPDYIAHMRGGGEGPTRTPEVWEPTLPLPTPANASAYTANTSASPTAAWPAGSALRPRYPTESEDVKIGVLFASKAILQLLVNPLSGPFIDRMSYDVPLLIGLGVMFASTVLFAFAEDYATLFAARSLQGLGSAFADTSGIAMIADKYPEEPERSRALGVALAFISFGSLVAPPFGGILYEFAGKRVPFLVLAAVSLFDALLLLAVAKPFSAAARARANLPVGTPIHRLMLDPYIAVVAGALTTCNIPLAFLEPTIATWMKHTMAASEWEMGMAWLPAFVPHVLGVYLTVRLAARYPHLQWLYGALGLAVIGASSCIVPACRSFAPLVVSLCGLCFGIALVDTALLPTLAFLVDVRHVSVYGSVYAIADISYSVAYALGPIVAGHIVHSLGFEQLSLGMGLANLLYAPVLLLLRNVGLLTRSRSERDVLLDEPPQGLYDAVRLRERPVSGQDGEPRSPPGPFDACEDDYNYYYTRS
# VAChT [2] = target: T2, VAChT (Tetronarce californica, UniProt P81721); assay: biochemical; assay type: binding; conditions: for VAChT/σ selectivity: in words; for σ1/VAChT: selectivity index Ki (σ1)/Ki (VAChT); for σ2/VAChT: selectivity index Ki (σ2)/Ki (VAChT)
# T2 construct: using highly purified Torpedo synaptic vesicles; from tissue
# T2 sequence (P81721 1-515): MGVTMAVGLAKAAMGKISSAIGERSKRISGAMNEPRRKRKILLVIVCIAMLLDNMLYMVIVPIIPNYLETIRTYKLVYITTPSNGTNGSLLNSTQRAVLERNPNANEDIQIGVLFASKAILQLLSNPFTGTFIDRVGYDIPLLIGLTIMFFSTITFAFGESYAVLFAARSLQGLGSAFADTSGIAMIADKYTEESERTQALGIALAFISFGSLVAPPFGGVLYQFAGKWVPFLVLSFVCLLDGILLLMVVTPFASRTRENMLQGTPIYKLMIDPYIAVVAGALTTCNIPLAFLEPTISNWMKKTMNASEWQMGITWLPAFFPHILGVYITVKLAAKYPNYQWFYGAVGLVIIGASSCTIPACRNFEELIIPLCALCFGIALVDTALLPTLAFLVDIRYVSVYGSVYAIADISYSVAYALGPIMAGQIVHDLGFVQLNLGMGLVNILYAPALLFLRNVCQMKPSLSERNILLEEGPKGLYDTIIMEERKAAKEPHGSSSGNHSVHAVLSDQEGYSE
# σ1 receptors = target: T3, σ1 receptors (Rattus norvegicus, UniProt Q9R0C9); assay: σ1 binding of Table 5 compounds
# T3 construct: tested in rat brain and in guinea pig membranes, respectively; from tissue; host or cells: rat brain
# T3 sequence (Q9R0C9 whole entry): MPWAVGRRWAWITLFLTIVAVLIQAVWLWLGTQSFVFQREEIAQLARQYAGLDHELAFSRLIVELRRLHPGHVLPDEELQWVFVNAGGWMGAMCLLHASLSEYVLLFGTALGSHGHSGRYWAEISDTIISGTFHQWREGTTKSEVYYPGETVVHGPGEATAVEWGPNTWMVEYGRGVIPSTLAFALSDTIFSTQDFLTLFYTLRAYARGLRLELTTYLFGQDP
# σ2 receptor [3] = target: T4, σ2 receptor (Rattus norvegicus, UniProt Q5U3Y7); assay: σ2 binding of Table 5 compounds; design: species or system guinea pig; conditions: read-out: σ2 Ki (nM) ± SEM; Table 6
# T4 sequence (Q5U3Y7 1-176): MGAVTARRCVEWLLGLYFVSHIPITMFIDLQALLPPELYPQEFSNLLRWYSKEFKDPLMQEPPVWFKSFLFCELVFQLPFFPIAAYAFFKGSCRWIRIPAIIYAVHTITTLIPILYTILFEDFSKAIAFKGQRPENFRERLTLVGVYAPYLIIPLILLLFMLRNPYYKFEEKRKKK
# Procedure: Compounds were tested for VAChT binding using highly purified Torpedo synaptic vesicles. The σ1 and σ2 binding affinities were tested in rat brain and in guinea pig membranes, respectively. Structures and Equilibrium binding constants (Ki) are reported in Table 5 and Table 6, respectively. As in previous studies, we define ligand selectivity in terms of a selectivity index which is calculated as Ki (σ1 or σ2)/Ki (VAChT).
# Consequently, we also screened the target compounds for sigma binding to identify selective VAChT ligands from this new structural class of agents.
# σ2 receptor [4] = target: T4, σ2 receptor; assay: σ2 receptor binding assay, [3H]DTG, rat liver membrane homogenates; design: conducted using rat liver membrane homogenates; from tissue; host or cells: rat liver membrane homogenates
# Procedure: (§1) The compounds were dissolved in DMF, DMSO, or ethanol, and then diluted in 50 mM Tris-HCl buffer containing 150 mM NaCl and 100 mM EDTA at pH 7.4, prior to performing the σ1 and σ2 receptor binding assays.
# The incubation time was 2 h at room temperature. Nonspecific binding was determined from samples that contained 10 μM of cold haloperidol. All other procedures were identical to those described for the σ1 receptor binding assay above.
# (§2) Ki values were calculated using the method of Cheng and Prusoff and are presented as the mean (±1 SEM).
# σ1 receptor [5] = target: σ1 receptor (Homo sapiens, UniProt Q99720); conditions: prior art ligands of FIG. 1; read-out: σ1 receptor binding affinity; cited from earlier work
# Sequence of σ1 receptor (Homo sapiens, UniProt Q99720) (Q99720 whole entry, species assumed): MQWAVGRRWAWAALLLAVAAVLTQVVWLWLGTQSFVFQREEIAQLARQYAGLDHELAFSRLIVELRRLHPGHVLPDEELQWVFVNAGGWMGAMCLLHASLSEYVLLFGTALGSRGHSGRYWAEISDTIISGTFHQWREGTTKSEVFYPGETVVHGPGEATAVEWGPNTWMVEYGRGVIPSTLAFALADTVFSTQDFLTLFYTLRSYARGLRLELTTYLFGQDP
# [6] = target: T5, human vesicular acetylcholine transporter (VAChT) (Homo sapiens, UniProt Q16572); assay: VAChT binding assay, (−)-[3H]vesamicol, human VAChT expressed in PC12 cells
# T5 construct: expressed in transfected cells; host or cells: PC12 A123.7 cells (crude extract / homogenized, partially clarified cells)
# T5 sequence (Q16572 1-532): T1 sequence (Q16572 1-532)
# Procedure: In vitro binding assays of these novel compounds to VAChT were conducted with human vesicular acetylcholine transporter (VAChT) permanently expressed in PC12^A123.7 cells at about 50 pmol/mg of crude extract. […] Duplicate data were averaged and fitted by regression with a rectangular hyperbola to estimate the Ki value of the novel compound. All compounds were independently assayed at least two times.
# σ1 receptor [7] = target: T6, σ1 receptor (Cavia porcellus, UniProt Q60492); assay: σ1 receptor binding assay, (+)-[3H]pentazocine, guinea pig brain membranes
# T6 construct: using guinea pig brain membrane homogenates; from tissue; host or cells: guinea pig brain membrane homogenates
# T6 sequence (Q60492 whole entry): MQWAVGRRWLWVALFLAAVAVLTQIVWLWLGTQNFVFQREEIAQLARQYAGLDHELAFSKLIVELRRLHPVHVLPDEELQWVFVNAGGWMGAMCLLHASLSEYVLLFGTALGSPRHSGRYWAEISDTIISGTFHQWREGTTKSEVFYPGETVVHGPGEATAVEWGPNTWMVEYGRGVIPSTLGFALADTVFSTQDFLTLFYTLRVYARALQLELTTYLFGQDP
# Procedure: as §1
# The total incubation time was 90 min at room temperature. Nonspecific binding was determined from samples that contained 10 μM of cold haloperidol. After 90 min, the reaction was quenched by adding 150 μL of ice-cold wash buffer (10 mM Tris-HCl, 150 mM NaCl, pH 7.4) using a 96 channel transfer pipet (Fisher Scientific, Pittsburgh, Pa.). The samples were harvested and filtered rapidly through a 96-well fiberglass filter plate (Millipore, Billerica, Mass.) that had been presoaked with 100 μL of 50 mM Tris-HCl buffer at pH 8.0 for 1 h.
# as §2
# [8] = Sigma-2 σ1 (nM), Table 4, Ki values of VAChT specific compounds, tissue not given
compound,measurement,setting,value
"O=C(c1ccc(F)cc1)C1CCN(C2CCN(C(=O)c3ccccc3)CC2O)CC1 (centres unmarked) (as salt: oxalate) [Compound 15c, (1′-Benzoyl-3′-hydroxy-[1,4′-bipiperidin]-4-yl)(4-fluorophenyl)methanone]",melting point,,152 °C (dec.)
"O=C(c1ccc([18F])cc1)C1CCN(C2Cc3ccccc3CC2O)CC1 (racemic) [FBBV, (±)-trcms-2-Hydroxy-3-(4-(4-[^18F]fluorobenzoyDpiperidino)tetralin]",Ki,VAChT [1],2.7 nM
"Cn1cccc1C(=O)C1CCN(C2Cc3ccccc3CC2O)CC1 (centres unmarked) (as salt: oxalate) [OS-5-60, (1-(3-Hydroxy-1,2,3,4-tetrahydronaphthalen-2-yl)piperidin-4-yl)(1-methyl-1H-pyrrol-2-yl) methanone oxalate]",melting point,,212 to 213 °C
"COc1ccc(C(=O)C2CCN(C3CCN(C(=O)c4ccc(F)cc4)CC3O)CC2)cc1 (centres unmarked) (as salt: oxalate) [Compound 15e, (1′-(4-Fluorobenzoyl)-3′-hydroxy-[1,4′-bipiperidin]-4-yl)(4-methoxyphenyl)methanone]",melting point,,216 °C (dec.)
"Nc1cccc2c1CC(N1CCC(C(=O)c3cccnc3)CC1)C(O)C2 (centres unmarked) (as salt: oxalate) [OS-5-110, (1-(8-Amino-3-hydroxy-1,2,3,4-tetrahydronaphthalen-2-yl)piperidin-4-yl)(pyridin-3-yl)methanone oxalate]",melting point,,109 to 111.2 °C
"COc1ccc(C(=O)C2CCN(C3CCN(Cc4ccncc4)CC3O)CC2)cc1 (racemic) (as salt: oxalate) [Compound 14h, (3′-Hydroxy-1′-(pyridin-4-ylmethyl)-[1,4′-bipiperidin]-4-yl)(4-methoxyphenyl)methanone]",melting point,,188 °C (dec.)
"Cn1cccc1C(=O)C1CCN(C2Cc3ccccc3CC2O)CC1 (centres unmarked) [OS-5-60, (1-(3-Hydroxy-1,2,3,4-tetrahydronaphthalen-2-yl)piperidin-4-yl)(1-methyl-1H-pyrrol-2-yl) methanone oxalate]",Ki,VAChT [2],18.4 ± 2.54 nM
same,VAChT/σ selectivity,VAChT [2],moderate or high
same,σ1/VAChT,VAChT [2],70.7
same,σ2/VAChT,VAChT [2],138.8
same,Ki,σ1 receptors,1300 ± 93 nM
same,Ki,σ2 receptor [3],2550 ± 339 nM
same,Ki,σ2 receptor [4]; [8],2550 ± 339 nM
"COc1ccc(C(=O)C2CCN(C3CCN(Cc4ccccc4)CC3O)CC2)cc1 (racemic) (as salt: oxalate) [Compound 14g, (1′-Benzyl-3′-hydroxy-[1,4′-bipiperidin]-4-yl)(4-methoxyphenyl)methanone]",melting point,,234 °C (dec.)
"COc1ccc(C(=O)C2CCN(C3Cc4c(N)cccc4CC3O)CC2)cn1 (centres unmarked) (as salt: oxalate) [OS-5-82, (1-(8-Amino-3-hydroxy-1,2,3,4-tetrahydronaphthalen-2-yl)piperidin-4-yl)(6-methoxypyridin-3-yl)methanone oxalate]",melting point,,81.4 to 83.2 °C
"Cc1ccc(C2CCN(C3CCCCC3O)CC2)cc1 (single isomer, unassigned; (-)) [(−)-p-methylvesamicol]",Ki,σ1 receptor [5],8.1 nM
CNc1ccc(C(=O)C2CCN(C3Cc4ccccc4CC3O)CC2)cc1 (centres unmarked) [TZ-3-156],Ki,VAChT [2],3.03 nM
same,VAChT/σ selectivity,VAChT [2],high selectivity
same,σ1/VAChT,VAChT [2],100.5
same,σ2/VAChT,VAChT [2],2040
same,Ki,σ1 receptors,13.2 ± 0.48 nM
same,Ki,σ2 receptor [3],6180 ± 537 nM
O=C(c1ccc(OCCF)cc1)C1CCN(C2Cc3ccccc3CC2O)CC1 (centres unmarked) [TZ-3-148],VAChT/σ selectivity,VAChT [2],poor selectivity
same,Ki,σ1 receptors,13.2 ± 0.2 nM
same,Ki,σ2 receptor [3],1890 ± 239 nM
"O=C(c1ccc(F)cc1)C1CCN(C2CCN(C(=O)c3ccc(F)cc3)CC2O)CC1 (centres unmarked) (as salt: oxalate) [Compound 15a, (3′-Hydroxy-[1,4′-bipiperidine]-1′,4-diyl)bis(4-fluorophenyl)methanone]",melting point,,213 °C (dec.)
"Nc1cccc2c1CC(N1CCC(C(=O)c3cccnc3)CC1)C(O)C2 (centres unmarked) [OS-5-110, (1-(8-Amino-3-hydroxy-1,2,3,4-tetrahydronaphthalen-2-yl)piperidin-4-yl)(pyridin-3-yl)methanone oxalate]",Ki,"[6]; VAChT (nM), Table 4, Ki values of VAChT specific compounds, source not given",2.2 nM
same,Ki,VAChT [2],118 ± 23.6 nM
same,VAChT/σ selectivity,VAChT [2],moderate or high
same,σ1/VAChT,VAChT [2],172.4
same,σ2/VAChT,VAChT [2],43.0
same,Ki,σ1 receptors,20300 ± 8130 nM
same,Ki,σ2 receptor [3],5080 ± 221 nM
same,Ki,σ2 receptor [4]; [8],5080 ± 221 nM
O=C(c1ccc(OCCF)nc1)C1CCN([C@H]2Cc3ccccc3C[C@@H]2O)CC1 [TZ-5-3],Ki,VAChT [2],38 ± 3.84 nM
same,VAChT/σ selectivity,VAChT [2],moderate or high
same,σ1/VAChT,VAChT [2],55.8
same,σ2/VAChT,VAChT [2],48.9
same,Ki,σ1 receptors,2120 ± 49 nM
same,Ki,σ2 receptor [3],1860 ± 144 nM
"Cc1ccc(C(=O)C2CCN(C3Cc4c(N)cccc4CC3O)CC2)cn1 (centres unmarked) (as salt: oxalate) [OS-5-70, (1-(8-amino-3-hydroxy-1,2,3,4-tetrahydronaphthalen-2-yl)piperidin-4-yl)(6-methylpyridin-3-yl)methanone oxalate]",melting point,,98 to 103 °C
OC1CN(Cc2cccc(I)c2)CCC1N1CCC(c2ccccc2)CC1 (centres unmarked) [meta-iodobenzyltrozamicol],Ki,σ1 receptor [5],92 nM
"COc1ccc(C(=O)C2CCN(C3CCN(C(=O)c4ccncc4)CC3O)CC2)cc1 (centres unmarked) (as salt: oxalate) [Compound 15g, (3′-Hydroxy-1′-isonicotinoyl-[1,4′-bipiperidin]-4-yl)(4-methoxyphenyl)methanone]",melting point,,220 °C (dec.)
"Cc1ccc(C(=O)C2CCN(C3Cc4ccccc4CC3O)CC2)cn1 (centres unmarked) [OS-5-40, oxalate]",Ki,σ1 receptors,2110 ± 289 nM
same,Ki,σ2 receptor [3],3770 ± 886 nM
same,Ki,σ2 receptor [4]; [8],3770 ± 886 nM
"O[C@H]1CCCC[C@@H]1N1CCC(c2ccc(I)s2)CC1 [(1S,2S)-2-(4-(5-iodothiophen-2-yl)piperidin-1-yl)cyclohexanol]",Ki,σ1 receptor [5],9.39 nM
"COc1ccc(C(=O)C2CCN(C3Cc4c(N)cccc4CC3O)CC2)cn1 (centres unmarked) [OS-5-82, (1-(8-Amino-3-hydroxy-1,2,3,4-tetrahydronaphthalen-2-yl)piperidin-4-yl)(6-methoxypyridin-3-yl)methanone oxalate]",Ki,"σ1 receptor [7]; Table 4, Ki values of VAChT specific compounds, tissue not given, read-out: Sigma-1 σ1",5682 ± 26 nM
same,Ki,"[6]; Table 4, Ki values of VAChT specific compounds, source not given, read-out: VAChT",23.3 ± 3.43 nM
same,Ki,VAChT [2],48 ± 11.4 nM
same,VAChT/σ selectivity,VAChT [2],moderate or high
same,σ1/VAChT,VAChT [2],118.4
same,σ2/VAChT,VAChT [2],225.3
same,Ki,σ1 receptors,5682 ± 26 nM
same,Ki,σ2 receptor [3],10800 ± 1280 nM
same,Ki,"σ2 receptor [4]; Table 4, Ki values of VAChT specific compounds, tissue not given, read-out: Sigma-2 σ1",10800 ± 1280 nM
"(4-Fluorophenyl)(4′-hydroxy-1′-(pyridin-4-ylmethyl)-[1,3′-bipiperidin]-4-yl)methanone [Compound 16d]",Ki,"σ1 receptor [7]; membrane preparations of guinea pig brain, mean ± SEM, at least three experiments, read-out: σ1 (Ki)",1160 ± 128 nM
same,σ1/VAChT selectivity,"σ1 receptor [7]; ratio of Ki values, Table 1",0.20
same,σ1/σ2 selectivity,"σ1 receptor [7]; ratio of Ki values, Table 1",11
same,Ki,"[6]; expressed human VAChT, mean ± SEM, read-out: VAChT (Ki)",237 nM
same,Ki,"σ2 receptor [4]; homogenates of rat liver, mean ± SEM, read-out: σ2 (Ki)",13000 ± 2630 nM
"OC1CCCCC1N1CCC(c2ccccc2)CC1 (single isomer, unassigned; (-)) [(−)-vesamicol, (−)-trans-2-(4-phenylpiperidino)cyclohexanol]",Ki,σ1 receptor [5],73.5 nM
